One data set addresses hA3AR (Homo sapiens (Human), UniProt P0DMS8). Briefly: Radioligand membrane binding assay at hA3AR ([125I]I-AB-MECA). Conditions: read-out: A3 Ki. The protocol: (§1) For cell cultures used in radioligand binding assays, after harvest and homogenization, the cells were centrifuged at 200×g for 10 min, and the pellet was re-suspended in 50 mM Tris-HCl buffer (pH 7.5), containing 10 mM MgCl2. The suspension was homogenized with an electric homogenizer for 10 s and was then re-centrifuged at 20,000×g for 20 min at 4° C. The resultant membrane pellets were resuspended in buffer in the presence of 3 units/ml adenosine deaminase, and the suspension was stored at −80° C. until the binding experiments. The protein concentration was measured using the Bradford assay. Radioligand membrane binding assays

The target in a further data set is hA2AAR (Homo sapiens (Human), UniProt P29274). The data set can be described thus: Radioligand membrane binding assay at hA2A AR ([3H]CGS21680). Conditions: for Ki: read-out: A2A Ki. As to the method: as §1
For another data set, the target named is hA1 AR (Homo sapiens (Human), UniProt P30542). Briefly: Radioligand membrane binding assay at hA1 AR ([3H]R-PIA). Conditions: for Ki: CHO cells expressing hA1AR, agonist radioligand [3H]R-PIA, read-out: A1 Ki. As to the method: as §1
[1] abbreviates: Table 1, inhibition of radioligand binding at 10 μM.
Setting [2] is: Table 1, CHO cells expressing hA3AR, [125I]I-AB-MECA.
[3] abbreviates: Table 1, HEK293 cells expressing hA2AAR, [3H]CGS21680.

Where two headings read alike, the source gives them in different places.

Sequence of hA1 AR (P30542 whole entry): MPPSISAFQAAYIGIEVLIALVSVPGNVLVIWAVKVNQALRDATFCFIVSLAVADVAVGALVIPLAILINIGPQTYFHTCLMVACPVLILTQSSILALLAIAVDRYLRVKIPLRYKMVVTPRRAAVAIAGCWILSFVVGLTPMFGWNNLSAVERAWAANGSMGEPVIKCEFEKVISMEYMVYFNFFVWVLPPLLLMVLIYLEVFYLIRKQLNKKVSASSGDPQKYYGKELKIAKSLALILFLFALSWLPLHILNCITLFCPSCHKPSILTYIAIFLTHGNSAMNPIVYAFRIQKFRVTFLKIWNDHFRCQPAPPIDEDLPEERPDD
Sequence of hA3AR (P0DMS8 whole entry): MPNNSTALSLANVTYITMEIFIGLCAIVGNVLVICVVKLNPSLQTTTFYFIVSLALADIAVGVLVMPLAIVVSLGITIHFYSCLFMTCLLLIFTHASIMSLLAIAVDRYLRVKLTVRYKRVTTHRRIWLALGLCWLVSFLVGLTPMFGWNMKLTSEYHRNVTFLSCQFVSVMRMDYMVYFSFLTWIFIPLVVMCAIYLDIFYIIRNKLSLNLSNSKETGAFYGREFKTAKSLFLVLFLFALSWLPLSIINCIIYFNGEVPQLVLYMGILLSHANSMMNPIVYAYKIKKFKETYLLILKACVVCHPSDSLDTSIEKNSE
Sequence of hA2AAR (P29274 whole entry): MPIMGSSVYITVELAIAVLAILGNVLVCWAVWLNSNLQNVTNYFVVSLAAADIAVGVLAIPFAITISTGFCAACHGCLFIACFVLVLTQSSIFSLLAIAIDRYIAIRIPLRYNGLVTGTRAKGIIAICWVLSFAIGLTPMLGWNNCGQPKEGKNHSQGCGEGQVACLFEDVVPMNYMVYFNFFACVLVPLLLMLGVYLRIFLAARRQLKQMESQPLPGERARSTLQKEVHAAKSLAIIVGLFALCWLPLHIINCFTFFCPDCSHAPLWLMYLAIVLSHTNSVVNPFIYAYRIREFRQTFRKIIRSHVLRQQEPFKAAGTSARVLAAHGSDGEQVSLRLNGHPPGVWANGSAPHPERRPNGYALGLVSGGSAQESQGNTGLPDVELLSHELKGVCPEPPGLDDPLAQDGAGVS

With `C#CCCCC(=O)Nc1nc2nn(C)cc2c2nc(-c3ccco3)nn12` [Compound 37, N-(2-(furan-2-yl)-8-methyl-8H-pyrazolo[4,3-e][1,2,4]triazolo[1,5-c]pyrimidin-5-yl)hex-5-ynamide], the melting point is 210 to 216 °C (dec.). Moreover, the inhibition constant Ki on hA3AR (Table 3) turned out to be 4.11 ± 0.93 nM. Besides, the Ki at hA2AAR (Table 3) turned out to be 199 nM.

`Cn1cc2c(nc(NCCCNC(=S)Nc3ccc(-c4c5ccc(=O)cc-5oc5cc(O)ccc45)c(C(=O)O)c3)n3nc(-c4ccco4)nc23)n1` [Compound 2]: on hA1 AR (setting [1]), the “A1 % inhibition” value was “(5 ± 2%)”. Besides, the Ki at hA3AR (setting [2]) is 2390 ± 660 nM; on hA2AAR (setting [3]), 2480 ± 420 nM.

As to `Cn1cc2c(nc(NC(=O)CCCc3cn(CCCCCCNC(=O)c4ccc(-c5c6ccc(=N)c(S(=O)(=O)O)c-6oc6c(S(=O)(=O)O)c(N)ccc56)c(C(=O)O)c4)nn3)n3nc(-c4ccco4)nc23)n1` [MRS5763], the inhibition constant (Ki) on hA3AR (Table 3) amounted to 31.8 nM; on hA2AAR (Table 3) it was 90 nM.

As to `C#CCCCCCC(=O)Nc1nc2nn(C)cc2c2nc(-c3ccco3)nn12` [Compound 39, N-(2-(furan-2-yl)-8-methyl-8H-pyrazolo[4,3-e][1,2,4]triazolo[1,5-c]pyrimidin-5-yl)oct-7-ynamide], the melting point is 204 to 208 °C (dec.). The A1 % inhibition at hA1 AR (Table 3) is listed as 62% ± 3%. Besides, on hA3AR (Table 3), the Ki turned out to be 12.8 nM. Further, the Ki on hA2AAR (Table 3) came out at 482 ± 141 nM.

Compound `Cn1cc2c(nc(NC(=O)Nc3ccc(CC(=O)NCCCNC(=O)OC(C)(C)C)cc3)n3nc(-c4ccco4)nc23)n1` [Compound 12, tert-Butyl (3-(2-(4-(3-(2-(furan-2-yl)-8-methyl-8H-pyrazolo[4,3-e][1,2,4]triazolo[1,5-c]pyrimidin-5-yl)ureido)phenyl)acetamido)propyl)carbamate] registered a melting point of 198 to 205 °C. The A1 % inhibition on hA1 AR (Table 3) is recorded as 15% ± 5%. Besides, the Ki at hA3AR (Table 3) is 2.75 ± 0.2 nM. Also, on hA2AAR (Table 3), the inhibition constant Ki stood at 150 ± 11 nM.

Regarding `Cn1cc2c(nc(NC(=O)Nc3ccc(CC(=O)NCCCCCNC(=O)OC(C)(C)C)cc3)n3nc(-c4ccco4)nc23)n1` [Compound 14, tert-Butyl (5-(2-(4-(3-(2-(furan-2-yl)-8-methyl-8H-pyrazolo[4,3-e][1,2,4]triazolo[1,5-c]pyrimidin-5-yl)ureido)phenyl)acetamido)pentyl)carbamate], on hA1 AR (Table 3), the A1 % inhibition was 14% ± 3%. Also, the Ki is 4.47 ± 1.06 nM on hA3AR (Table 3) and 376 ± 96 nM on hA2AAR (Table 3).

Compound `Cn1cc2c(nc(NC(=O)Nc3ccc(CC(=O)NCCCCCN)cc3)n3nc(-c4ccco4)nc23)n1.O=C(O)C(F)(F)F` [Compound 19, N-(5-aminopentyl)-2-(4-(3-(2-(furan-2-yl)-8-methyl-8H-pyrazolo[4,3-e][1,2,4]triazolo[1,5-c]pyrimidin-5-yl)ureido)phenyl)acetamide trifluoroacetate salt] had a melting point of 170 to 178 °C. Besides, on hA1 AR (Table 3), the A1 % inhibition is on record as 6% ± 4%. Further, on hA3AR (Table 3), the Ki was found to be 2.66 ± 0.48 nM. The inhibition constant (Ki) at hA2AAR (Table 3) worked out at 203 ± 52 nM.

For the compound `Cn1cc2c(nc(NC(=O)Nc3ccc(CC(=O)NCCOCCOCCN)cc3)n3nc(-c4ccco4)nc23)n1.O=C(O)C(F)(F)F` [Compound 20, 2-(2-(2-(2-(4-(3-(2-(furan-2-yl)-8-methyl-8H-pyrazolo[4,3-e][1,2,4]triazolo[1,5-c]pyrimidin-5-yl)ureido)phenyl)acetamido)ethoxy)ethoxy)ethanamine trifluoroacetate salt], the melting point was 152 to 160 °C. For the same compound, the A1 % inhibition on hA1 AR (Table 3) is 17% ± 3%. Besides, the inhibitory constant (Ki) on hA3AR (Table 3) is 19.2 ± 3.3 nM. The Ki at hA2AAR (Table 3) came out at 267 ± 61 nM.

As for `Cn1cc2c(nc(NC(=O)Nc3ccc(CC(=O)NCCCOCCOCCOCCCNC(=S)Nc4ccc5c(c4)C(=O)OC54c5ccc(O)cc5Oc5cc(O)ccc54)cc3)n3nc(-c4ccco4)nc23)n1` [Compound 26, N-(1((Fluorescein-5-yl)amino)-1-thioxo-6,9,12-trioxa-2-azapentadecan-15-yl)-2-(4-(3-(2-(furan-2-yl)-8-methyl-8H-pyrazolo[4,3-e][1,2,4]triazolo[1,5-c]pyrimidin-5-yl)ureido)phenyl)acetamide], on hA1 AR (Table 3), the A1 % inhibition is on record as 32% ± 6%. The values for the Ki at hA3AR (Table 3) and on hA2AAR (Table 3) were 207 ± 95 nM and 91.5 ± 20 nM, respectively.

`Cn1cc2c(nc(NC(=O)Nc3ccc(CC(=O)NCCCNC(=S)Nc4ccc5c(c4)C(=O)OC54c5ccc(O)cc5Oc5cc(O)ccc54)cc3)n3nc(-c4ccco4)nc23)n1` [Compound 22, N-(3-(3-(Fluorescein-5-yl)thioureido)propyl)-2-(4-(3-(2-(furan-2-yl)-8-methyl-8H-pyrazolo[4,3-e][1,2,4]triazolo[1,5-c]pyrimidin-5-yl)ureido)phenyl)acetamide]: on hA1 AR (Table 3), the A1 % inhibition is recorded as 27% ± 1%. Besides, the Ki on hA3AR (Table 3) is 104 ± 44 nM; at hA2AAR (Table 3), 110 ± 18 nM.

For the compound `Cn1cc2c(nc(NC(=O)Nc3ccc(CC(=O)NCCCN)cc3)n3nc(-c4ccco4)nc23)n1.O=C(O)C(F)(F)F` [Compound 17, N-(3-aminopropyl)-2-(4-(3-(2-(furan-2-yl)-8-methyl-8H-pyrazolo[4,3-e][1,2,4]triazolo[1,5-c]pyrimidin-5-yl)ureido)phenyl)acetamide trifluoroacetate salt], the melting point was in the range of 142 to 150 °C. The A1 % inhibition on hA1 AR (Table 3) is on record as 9% ± 3%. At hA3AR (Table 3), the Ki came out at 8.06 ± 2.47 nM. Also, the Ki on hA2AAR (Table 3) came to 175 ± 27 nM.

In the case of `Cn1cc2c(nc(NCCCOCCOOCCCCCNC(=S)Nc3ccc(-c4c5ccc(=O)cc-5oc5cc(O)ccc45)c(C(=O)O)c3)n3nc(-c4ccco4)nc23)n1` [Compound 6], the “A1 % inhibition” value at hA1 AR (setting [1]) is “(0%)”. The Ki at hA3AR (setting [2]) is 7090 ± 370 nM; at hA2AAR (setting [3]), 6010 ± 420 nM.

For `C#CCCCC(=O)Nc1nc2ccc(Cl)cc2c2nc(-c3ccco3)nn12` [Compound 8, N-(9-Chloro-2-(furan-2-yl)-[1,2,4]triazolo[1,5-c]quinazolin-5-yl)hex-5-ynamide], the Ki on hA1 AR (Table 1) is 170 ± 40 nM; at hA3AR (setting [2]), 33.5 ± 10.1 nM; at hA2AAR (setting [3]), 51 ± 10 nM.

Turning to `Cn1cc2c(nc(NC(=O)Nc3ccc(CC(=O)NCCOCCOCCNC(=S)Nc4ccc5c(c4)C(=O)OC54c5ccc(O)cc5Oc5cc(O)ccc54)cc3)n3nc(-c4ccco4)nc23)n1` [Compound 25, N-(2-(2-(2-(3-(Fluorescein-5-yl)thioureido)ethoxy)ethoxy)ethyl)-2-(4-(3-(2-(furan-2-yl)-8-methyl-8H-pyrazolo[4,3-e][1,2,4]triazolo[1,5-c]pyrimidin-5-yl)ureido)phenyl)acetamide], the A1 % inhibition on hA1 AR (Table 3) is 29% ± 1%. In addition, the figures for the Ki at hA3AR (Table 3) and on hA2AAR (Table 3) were 137 ± 28 nM and 95.7 ± 25.4 nM, respectively.

In the case of `C#CCCC(=O)Nc1nc2nn(C)cc2c2nc(-c3ccco3)nn12` [Compound 36, N-(2-(furan-2-yl)-8-methyl-8H-pyrazolo[4,3-e][1,2,4]triazolo[1,5-e]pyrimidin-5-yl)pent-4-ynamide], the A1 % inhibition at hA1 AR (Table 3) was 55% ± 4%. Also, the inhibitory constant (Ki) on hA3AR (Table 3) worked out at 11 ± 0.6 nM; on hA2AAR (Table 3), 133 ± 37 nM.

Regarding `Cn1cc2c(nc(NNC(=S)Nc3ccc(-c4c5ccc(=O)cc-5oc5cc(O)ccc45)c(C(=O)O)c3)n3nc(-c4ccco4)nc23)n1` [Compound 1], the Ki worked out at 9500 nM at hA1 AR (Table 1), 780 nM at hA3AR (setting [2]) and 920 ± 110 nM on hA2AAR (setting [3]).

For the compound `Cn1cc2c(nc(NC(=O)Nc3ccc(CC(=O)NCCCCNC(=S)Nc4ccc5c(c4)C(=O)OC54c5ccc(O)cc5Oc5cc(O)ccc54)cc3)n3nc(-c4ccco4)nc23)n1` [Compound 23, N-(4-(3-(Fluorescein-5-yl)thioureido)butyl)-2-(4-(3-(2-(furan-2-yl)-8-methyl-8H-pyrazolo[4,3-e][1,2,4]triazolo[1,5-c]pyrimidin-5-yl)ureido)phenyl)acetamide], the A1 % inhibition on hA1 AR (Table 3) is on record as 28% ± 8%. For the same compound, the values for the inhibition constant Ki on hA3AR (Table 3) and on hA2AAR (Table 3) were 73.6 ± 14.7 nM and 60.4 ± 6.2 nM, respectively.

Consider `Cn1cc2c(nc(NC(=O)Nc3ccc(CC(=O)NCCCCCNC(=S)Nc4ccc5c(c4)C(=O)OC54c5ccc(O)cc5Oc5cc(O)ccc54)cc3)n3nc(-c4ccco4)nc23)n1` [Compound 24, N-(5-(3-(Fluorescein-5-yl)thioureido)pentyl)-2-(4-(3-(2-(furan-2-yl)-8-methyl-8H-pyrazolo[4,3-e][1,2,4]triazolo[1,5-c]pyrimidin-5-yl)ureido)phenyl)acetamide], for which the A1 % inhibition at hA1 AR (Table 3) is recorded as 21% ± 5%. In addition, the Ki at hA3AR (Table 3) came to 96.7 ± 26.9 nM; on hA2AAR (Table 3), 106 ± 14 nM.

With `Cn1cc2c(nc(NCCCCNC(=S)Nc3ccc(-c4c5ccc(=O)cc-5oc5cc(O)ccc45)c(C(=O)O)c3)n3nc(-c4ccco4)nc23)n1` [Compound 3], the “A1 % inhibition” value on hA1 AR (setting [1]) is recorded as “(7 ± 5%)”. The Ki was determined as 720 nM on hA3AR (setting [2]) and 460 ± 60 nM on hA2AAR (setting [3]).

Consider `Cn1cc2c(nc(NCCCCCNC(=S)Nc3ccc(-c4c5ccc(=O)cc-5oc5cc(O)ccc45)c(C(=O)O)c3)n3nc(-c4ccco4)nc23)n1` [Compound 4], for which, on hA1 AR (setting [1]), the “A1 % inhibition” value is reported as “(9 ± 5%)”. The Ki at hA3AR (setting [2]) was 5660 ± 610 nM; on hA2AAR (setting [3]), 1750 ± 470 nM.

With `Cn1cc2c(nc(NCCOOCCCCNC(=S)Nc3ccc(-c4c5ccc(=O)cc-5oc5cc(O)ccc45)c(C(=O)O)c3)n3nc(-c4ccco4)nc23)n1` [Compound 5], the “A1 % inhibition” value on hA1 AR (setting [1]) is listed as “(0%)”. Further, the inhibitory constant (Ki) on hA3AR (setting [2]) was determined as 9390 ± 1730 nM. On hA2AAR (setting [1]), the “A2A % Inhibition” value is on record as “(30 ± 6%)”.

Regarding `Cn1cc2c(nc(NC(=O)Nc3ccc(CC(=O)O)cc3)n3nc(-c4ccco4)nc23)n1` [Compound 11, 2-(4-(3-(2-(furan-2-yl)-8-methyl-8H-pyrazolo[4,3-e][1,2,4]triazolo[1,5-c]pyrimidin-5-yl)ureido)phenyl)acetic acid], the Ki on hA3AR (Table 3) was found to be 128 ± 26 nM; at hA2AAR (Table 3), 1010 nM.

The Ki is the equilibrium dissociation constant of an inhibitor or competing ligand from its target. Usually melting point stands for the temperature of the solid-liquid transition.

Source of the values: patent US9227979B2, “Fluorescent antagonists of the A3 adenosine receptor” (The United States of America, as represented by the …, priority 2012, dated 2016).
